According to PMC11845477, “Exploring the principles behind antibiotics with limited resistance” (Nature Communications, 2025):
Where a SMILES comes first, the peptide text is derived from it. Bridges are numbered along the chain shown (N, C = ends). [ ]: non-standard residue; d: D form. The star is where a group is joined. X2 = CC[C@H](C)CCCCC(=O)*; Dab = NCC[C@H](N)C(=O)O

Experiments:
[1] = tested on: A. baumannii ATCC 17978 (SEN) and A. baumannii ATCC BAA-1605 (MDR); assay: microbe, parasite or virus in culture; type: cell-based, Acinetobacter baumannii; settings: for MIC of ancestor: ancestor strain; for MIC: across three biological replicates
Procedure, shortened: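 Inoculum was 5 × 10^5 cells/mL in cation-adjusted MHB2 (SCH79797 excepted) across 11–16-step dilution series in duplicate. Relative MIC divides evolved-strain MIC by ancestor MIC.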

[2] = tested on: E. coli ATCC 25922 (SEN) and E. coli NCTC13846 (MDR); assay: Adaptive laboratory evolution (ALE), relative MIC of evolved lines; type: cell-based, Escherichia coli
Procedure, shortened: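 Ten parallel populations per antibiotic–ancestor pair were evolved in MHB at 37 °C, starting near 50% growth-inhibiting drug. Every 72 h they were passaged into 0.5–2.5× increasing concentrations, keeping the highest-drug well with OD600 > 0.2.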

[3] = Acinetobacter baumannii ATCC 17978 (AB-SEN)

CN(C)[C@@H]1C(O)=C(C(N)=O)C(=O)[C@@]2(O)C(O)=C3C(=O)c4c(O)c(NC(=O)CN5CCCC5)cc(F)c4C[C@H]3C[C@@H]12 [Eravacycline] was tested, and the MIC of ancestor [1, 3] was 0.0625 µg/mL, the MIC of ancestor ([1]; Acinetobacter baumannii ATCC 17978 (AB-SEN), sheet fig 2a) was 0.0625 µg/mL and the MIC of ancestor ([1]; Acinetobacter baumannii ATCC BAA 1605 (AB-MDR)) was 2 µg/mL. For the same compound, the MIC of ancestor ([1]; Acinetobacter baumannii ATCC BAA 1605 (AB-MDR), sheet fig 2a) was 2 µg/mL, the MIC ([1]; Acinetobacter baumannii, Acinetobacter baumannii ATCC 17978 (AB-SEN)) was 0.0625 µg/mL and the MIC ([1]; Acinetobacter baumannii, Acinetobacter baumannii ATCC BAA-1605 (AB-MDR)) was 2 µg/mL. For the same compound, the “Relative MIC (log10)” value ([2]; EC-MDR (Escherichia coli NCTC 13846), evolved line 1 adapted to the named antibiotic) was 1.505, the “Relative MIC (log10)” value ([2]; EC-MDR (Escherichia coli NCTC 13846), evolved line 3 adapted to the named antibiotic) was 1.204 and the “Relative MIC (log10)” value ([2]; EC-MDR (Escherichia coli NCTC 13846), evolved line 4 adapted to the named antibiotic) was 1.204. For the same compound, the “Relative MIC (log10)” value ([2]; EC-MDR (Escherichia coli NCTC 13846), evolved line 7 adapted to the named antibiotic) was 1.204, the “Relative MIC (log10)” value ([2]; EC-MDR (Escherichia coli NCTC 13846), evolved line 9 adapted to the named antibiotic) was 1.505 and the “Relative MIC” value ([2]; EC-MDR (NCTC 13846), evolved line 1, MIC of evolved line / MIC of ancestor) was 32. The “Relative MIC” value ([2]; EC-MDR (NCTC 13846), evolved line 2, MIC of evolved line / MIC of ancestor) was 16, the “Relative MIC” value ([2]; EC-MDR (NCTC 13846), evolved line 3, MIC of evolved line / MIC of ancestor) was 16 and the “Relative MIC” value ([2]; EC-MDR (NCTC 13846), evolved line 4, MIC of evolved line / MIC of ancestor) was 16. For the same compound, the “Relative MIC” value ([2]; EC-MDR (NCTC 13846), evolved line 5, MIC of evolved line / MIC of ancestor) was 8, the “Relative MIC” value ([2]; EC-MDR (NCTC 13846), evolved line 7, MIC of evolved line / MIC of ancestor) was 16 and the “Relative MIC” value ([2]; EC-MDR (NCTC 13846), evolved line 8, MIC of evolved line / MIC of ancestor) was 16. For the same compound, the “Relative MIC” value ([2]; EC-MDR (NCTC 13846), evolved line 9, MIC of evolved line / MIC of ancestor) was 32, the “Relative MIC” value ([2]; EC-MDR (NCTC 13846), evolved line 10, MIC of evolved line / MIC of ancestor) was 8 and the “Relative MIC” value ([2]; EC-SEN (ATCC 25922), evolved line 1, MIC of evolved line / MIC of ancestor) was 64. For the same compound, the “Relative MIC” value ([2]; EC-SEN (ATCC 25922), evolved line 2, MIC of evolved line / MIC of ancestor) was 16, the “Relative MIC (log10)” value ([2]; EC-SEN (Escherichia coli ATCC 25922), evolved line 1 adapted to the named antibiotic) was 1.806 and the “Relative MIC (log10)” value ([2]; EC-SEN (Escherichia coli ATCC 25922), evolved line 4 adapted to the named antibiotic) was 1.204. The “Relative MIC (log10)” value ([2]; EC-SEN (Escherichia coli ATCC 25922), evolved line 7 adapted to the named antibiotic) was 1.204, the “Relative MIC (log10)” value ([2]; EC-SEN (Escherichia coli ATCC 25922), evolved line 8 adapted to the named antibiotic) was 1.204 and the “Relative MIC” value ([2]; EC-SEN, Escherichia coli ATCC 25922, evolved line 3 versus ancestor) was 8. The “Relative MIC” value ([2]; EC-SEN, Escherichia coli ATCC 25922, evolved line 4 versus ancestor) was 16, the “Relative MIC” value ([2]; EC-SEN, Escherichia coli ATCC 25922, evolved line 6 versus ancestor) was 8 and the “Relative MIC” value ([2]; EC-SEN, Escherichia coli ATCC 25922, evolved line 7 versus ancestor) was 16. For the same compound, the “Relative MIC” value ([2]; EC-SEN, Escherichia coli ATCC 25922, evolved line 8 versus ancestor) was 16, the “Relative MIC” value ([2]; EC-SEN, Escherichia coli ATCC 25922, evolved line 9 versus ancestor) was 16 and the “Relative MIC” value ([2]; EC-SEN, Escherichia coli ATCC 25922, evolved line 10 versus ancestor) was 32. For the same compound, the “Relative MIC” value ([2]; Escherichia coli ATCC 25922 (EC-SEN), evolved line 1) was 64, the “Relative MIC” value ([2]; Escherichia coli ATCC 25922 (EC-SEN), evolved line 2) was 16 and the “Relative MIC” value ([2]; Escherichia coli ATCC 25922 (EC-SEN), evolved line 3) was 8. The “Relative MIC” value ([2]; Escherichia coli ATCC 25922 (EC-SEN), evolved line 4) was 16, the “Relative MIC” value ([2]; Escherichia coli ATCC 25922 (EC-SEN), evolved line 6) was 8 and the “Relative MIC” value ([2]; Escherichia coli ATCC 25922 (EC-SEN), evolved line 7) was 16. The “Relative MIC” value ([2]; Escherichia coli ATCC 25922 (EC-SEN), evolved line 8) was 16, the “Relative MIC” value ([2]; Escherichia coli ATCC 25922 (EC-SEN), evolved line 9) was 16 and the “Relative MIC” value ([2]; Escherichia coli ATCC 25922 (EC-SEN), evolved line 10) was 32. The “Relative MIC” value ([2]; Escherichia coli NCTC 13846 (EC-MDR), evolved line 1) was 32, the “Relative MIC” value ([2]; Escherichia coli NCTC 13846 (EC-MDR), evolved line 2) was 16 and the “Relative MIC” value ([2]; Escherichia coli NCTC 13846 (EC-MDR), evolved line 3) was 16. The “Relative MIC” value ([2]; Escherichia coli NCTC 13846 (EC-MDR), evolved line 4) was 16, the “Relative MIC” value ([2]; Escherichia coli NCTC 13846 (EC-MDR), evolved line 5) was 8 and the “Relative MIC” value ([2]; Escherichia coli NCTC 13846 (EC-MDR), evolved line 7) was 16. The “Relative MIC” value ([2]; Escherichia coli NCTC 13846 (EC-MDR), evolved line 8) was 16, the “Relative MIC” value ([2]; Escherichia coli NCTC 13846 (EC-MDR), evolved line 9) was 32 and the “Relative MIC” value ([2]; Escherichia coli NCTC 13846 (EC-MDR), evolved line 10) was 8.
With CC[C@H](C)CCCCC(=O)N[C@@H](CCN)C(=O)N[C@H](C(=O)N[C@@H](CCN)C(=O)N[C@H]1CCNC(=O)[C@H]([C@@H](C)O)NC(=O)[C@H](CCN)NC(=O)[C@H](CCN)NC(=O)[C@H](CC(C)C)NC(=O)[C@@H](Cc2ccccc2)NC(=O)[C@H](CCN)NC1=O)[C@@H](C)O [Polymyxin B] (X2-[Dab]T[Dab][Dab][Dab][dF]L[Dab][Dab]T; lactam 4-C (inferred); N-terminus assumed) the MIC [1, 3] was 1 µg/mL, the MIC ([1]; Acinetobacter baumannii ATCC BAA-1605 (AB-MDR)) was 1 µg/mL and the “Relative MIC (log10)” value ([2]; EC-MDR (Escherichia coli NCTC 13846), evolved line 2) was 1.505 log10. The “Relative MIC (log10)” value ([2]; EC-MDR (Escherichia coli NCTC 13846), evolved line 5) was 1.204 log10, the “Relative MIC (log10)” value ([2]; EC-MDR (Escherichia coli NCTC 13846), evolved line 10) was 1.204 log10 and the “Relative MIC (log10)” value ([2]; EC-MDR, Escherichia coli NCTC 13846, evolved line 1) was 1.505 log10. For the same compound, the “Relative MIC (log10)” value ([2]; EC-MDR, Escherichia coli NCTC 13846, evolved line 6) was 1.204 log10, the “Relative MIC (log10)” value ([2]; EC-SEN (Escherichia coli ATCC 25922), evolved line 4) was 2.107 log10 and the “Relative MIC (log10)” value ([2]; EC-SEN (Escherichia coli ATCC 25922), evolved line 6) was 2.107 log10. For the same compound, the “Relative MIC (log10)” value ([2]; EC-SEN (Escherichia coli ATCC 25922), evolved line 8) was 2.107 log10, the “Relative MIC (log10)” value ([2]; EC-SEN (Escherichia coli ATCC 25922), evolved line 10) was 2.107 log10 and the “Relative MIC (log10)” value ([2]; EC-SEN, Escherichia coli ATCC 25922, evolved line 2) was 2.107 log10.
